# Measured values reported in patent publication US20090076136A1, “THERAPEUTIC AGENT” (priority 2003, published 2009).
# Key:
# [1] = tested on: mature adipocytes (3T3-L1 cells); assay: Enhancing action on glucose uptake: 2-deoxyglucose uptake into mature adipocytes; assay type: cell-based
# Experimental: The induction of differentiation into mature adipocytes was carried out by partially modifying the method of Rubin C. S. et al. (JBC. 253 7570-7578, 1978). 3T3-L1 cells (ATCC CCL-92.1) were suspended in a 10% calf serum (manufactured by ICN)-containing Dulbecco's modified Eagle's medium (manufactured by Sigma, D6046) containing 200 μM ascorbic acid so as to have a density of 4×10^3 cells/mL, and the suspension was put in each well of a 12-well microtiter plate in an amount of 2 mL per well. The cells were cultured at 37° C. for 7 days in the presence of 5% carbon dioxide gas. On the seventh day, the medium was exchanged with […] of a 10% fetal bovine serum (manufactured by GIBCO)-containing Dulbecco's modified Eagle's medium containing 200 μM ascorbic acid, 0.25 μM dexamethasone, 10 μg/mL insulin (manufactured by TAKARA BIO INC.) and 0.5 mM 3-isobutyl-1-methylxanthine (manufactured by Nacalai Tesque, Inc., 19624-86). After 45 hours, the medium was exchanged with 2 mL of a 10% fetal bovine serum-containing Dulbecco's modified Eagle's medium containing 200 μM ascorbic acid and 5 μg/mL insulin. The medium was exchanged on after 2 days and 5 days, and the cells were cultured for 7 days, to give mature adipocytes.
# As the evaluation of enhancing action on glucose uptake, and also as the evaluation of insulin-mimetic action, the amount of 2-deoxyglucose uptake into mature adipocytes stimulated with the sample in the adipocytes was determined.
# After the termination of the culture, the medium was removed, and the cells were washed twice with a 0.1% (w/v) bovine serum albumin (manufactured by Sigma, A8022)-containing Dulbecco's modified Eagle's medium. Thereafter, 1 mL of the same medium was put to each well. The cells were cultured overnight at 37° C. in the presence of 5% carbon dioxide gas. After the overnight culture, the cells were washed twice with a HEPES buffered saline (140 mM NaCl, 5 mM KCl, 2.5 mM MgSO4, 1 mM CaCl2, 20 mM HEPES-Na (pH 7.4)), and 0.9 mL of the same buffer was added thereto. The cells were cultured at 37° C. for 75 minutes. […] […] Thereafter, 100 μL of a HEPES buffered saline containing 2-deoxy-[1,2-^3H(N)]-glucose (manufactured by PerkinElmer Life Sciences Inc., NET549A) and 1 mM 2-deoxyglucose (manufactured by Nacalai Tesque, Inc., 10722-11) was added thereto at a final concentration of 0.5 μCi/mL, and the cells were further cultured at 37° C. for 10 minutes. After the termination of the culture, the supernatant was removed, the cells were washed three times with a phosphate buffer cooled to 4° C., and 0.5 mL of a 1% Nonidet P-40-containing phosphate buffer was added to lyse the cells, whereby 2-deoxy-[1,2-^3H(N)]-glucose taken into the cells was eluted. The radioactivity was determined with a liquid scintillation counter LS6500 (manufactured by Beckmann) using 25 μL of the supernatant with Ultima Gold (manufactured by PerkinElmer Life Sciences Inc., 6013329) as a scintillation cocktail.
# [2] = tested on: mouse; assay: Single-dose oral toxicity in mouse; assay type: in vivo; settings: 1 g/kg weight
# Experimental: No toxicity is found even when the above-mentioned effective ingredient used in the present invention is administered in an effective dose for the exhibition of its action.
# [3] = tested on: 3T3-L1 cells; assay: Inducing action on differentiation into adipocytes: amount of triglyceride in the adipocytes; assay type: cell-based
# Experimental: Induction of differentiation into adipocytes was carried out by partially modifying the above-mentioned method of Rubin C. S. et al. In addition, as a compound (P001), a compound prepared in Example 4 was used. 3T3-L1 cells were suspended in a 10% (w/v) calf serum-containing Dulbecco's modified Eagle's medium containing 200 μM ascorbic acid so as to have a density of 4×10^3 cells/mL, and the suspension was put in each well of a 12-well microtiter plate in an amount of 2 mL per well. The cells were cultured at 37° C. for 7 days in the presence of 5% carbon dioxide gas. On the seventh day, the medium was exchanged with a 10% fetal bovine serum-containing Dulbecco's modified Eagle's medium containing 200 μM ascorbic acid and 0.25 μM dexamethasone, and 4 μL of a 15 mM dimethyl sulfoxide solution of the compound (P001), a 5 mM dimethyl sulfoxide solution of the compound (P001), or a 1.5 mM dimethyl sulfoxide solution of the compound (P001) was added to each well. Here, there were set a group with addition of 4 μL of a 5 mg/mL aqueous solution of insulin as a positive control, and a group with addition of dimethyl sulfoxide as a negative control. After 48 hours, the medium was exchanged with a 10% fetal bovine serum-containing Dulbecco's modified Eagle's medium containing 200 μM ascorbic acid, and 4 μL of a 15 mM dimethyl sulfoxide solution of the compound (P001), a 5 mM dimethyl sulfoxide solution of the compound (P001), or a 1.5 mM dimethyl sulfoxide solution of the compound (P001), a group with addition of 2 μL of a 5 mg/mL aqueous solution of insulin as a positive control, or a group with addition of dimethyl sulfoxide as a negative control was put to each well. The cells were cultured for additional 7 days. Here, the medium was exchanged after 2 days and after 5 days, and at that time, 4 μL of a 15 mM dimethyl sulfoxide solution of the compound (P001), a 5 mM dimethyl sulfoxide solution of the compound (P001), or a 1.5 mM dimethyl sulfoxide solution of the compound (P001), a group with addition of 2 μL of a 5 mg/mL aqueous solution of insulin as a positive control, or a group with addition of dimethyl sulfoxide as a negative control was put to each well. […]
# The amount of triglyceride in the adipocytes was determined as an index for inducing differentiation into mature adipocytes, and also as the evaluation of insulin-mimetic action.
# After the termination of the culture, the medium was removed, and the cells were washed twice with a phosphate buffered saline. One milliliter of a solvent of hexane:isopropanol=3:2 was added to the cells. The mixture was allowed to stand at room temperature for 30 minutes, and thereafter the supernatant was collected. The procedures were repeated again, and 2 mL of the supernatant was concentrated to dryness. The precipitates were dissolved in 100 μL of isopropanol, and the amount of triglyceride contained in 10 μL of the solution was determined using a triglyceride E-test (manufactured by Wako Pure Chemical Industries, Ltd., code 432-40201). In addition, all the determinations were carried out twice.
# [4] = tested on: glucose transporter (mature adipocytes); assay: Influence of cytochalasin B on 2-deoxyglucose uptake in mature adipocytes; assay type: cell-based; settings: cytochalasin B 40 μM, in every group (polygodial 3 μM, insulin 1 μg/mL, negative control)
# Experimental: Specifically, as a sample, there was set a group with addition of a dimethyl sulfoxide solution of polygodial so as to have a final concentration of 3 μM. […] Furthermore, in each group, there was set a group with addition of cytochalasin B (manufactured by Nacalai Tesque, Inc., 10435-81) so as to have a final concentration 40 μM at the same time as the time of addition of the sample and insulin. Thereafter, the amount of 2-deoxy-[1,2-^3H(N)]-glucose taken into the adipocytes was determined in the same manner.
# [5] = final concentration 10 μM, 3 μM or 1 μM, FIG. 2, FIG. 3
# [6] = final concentration 30 μM, 10 μM or 3 μM
smiles,measurement,setting,value
CC(=O)O[C@@H]1C[C@@H]2[C@@]3(C)CCCC(C)(C)[C@@H]3CC[C@@]2(C)[C@@H]2CC=C(C=O)[C@H](C=O)[C@@]12C [12-epi-scalaradial],"2-deoxy-[1,2-3H(N)]-glucose uptake compared to the negative control",[1]; [5],"enhancement of 2-deoxy-[1,2-^3H(N)]-glucose uptake was found"
same,deaths after oral administration,[2],no cases of deaths are found
"COC(=O)C1=C(C(=O)OC)C2(C)CCCC(C)(C)C2=CC1 (stereo not shown) [P001, dimethyl 3,5,6,7,8,8a-hexahydro-5,5,8a-trimethyl-1,2-naphthalenedicarboxylate]",biosynthesis of triglyceride (index of differentiation into mature adipocytes),[3]; [6],induction of biosynthesis of triglyceride was found
same,deaths after oral administration,[2],no cases of deaths are found
"CC1(C)CCCC2(C)C1=CCC(CO)=C2CO (stereo not shown) [P002, 3,5,6,7,8,8a-hexahydro-5,5,8a-trimethyl-1,2-naphthalenedimethanol]",biosynthesis of triglyceride (index of differentiation into mature adipocytes),"[3]; final concentration 30 μM or 3 μM, FIG. 7",induction of biosynthesis of triglyceride was found
same,deaths after oral administration,[2],no cases of deaths are found
"CC1(C)CCCC2(C)C1=CCC1=C2C(=O)OC1 (stereo not shown) [P003, 4,6,7,8,9,9a-hexahydro-6,6,9a-trimethyl-naphtho[1,2-c]furan-1(3H)-one]","2-deoxy-[1,2-3H(N)]-glucose uptake compared to the negative control","[1]; final concentration 30 μM or 10 μM, sample added at each exchange of BSA medium or HEPES buffered saline, FIG. 23","enhancement of 2-deoxy-[1,2-^3H(N)]-glucose uptake was found"
same,biosynthesis of triglyceride (index of differentiation into mature adipocytes),[3]; [6],induction of biosynthesis of triglyceride was found
same,deaths after oral administration,[2],no cases of deaths are found
"COC(=O)C1=CCC2C(C)(C)CCCC2(C)C1C(=O)OC (stereo not shown) [P004, dimethyl 1,4,4a,5,6,7,8,8a-octahydro-5,5,8a-trimethyl-1,2-naphthalenedicarboxylate]","2-deoxy-[1,2-3H(N)]-glucose uptake compared to the negative control","[1]; final concentration 30 μM, 10 μM or 3 μM, FIG. 11","enhancement of 2-deoxy-[1,2-H(N)]-glucose uptake was found"
same,biosynthesis of triglyceride (index of differentiation into mature adipocytes),"[3]; final concentration 10 μM, 3 μM or 1 μM, FIG. 12",induction of biosynthesis of triglyceride was found
same,deaths after oral administration,[2],no cases of deaths are found
"CC1(C)CCCC2(C)C(CO)C(CO)=CCC12 (stereo not shown) [P005, 1,4,4a,5,6,7,8,8a-octahydro-5,5,8a-trimethyl-1,2-naphthalenedimethanol]",biosynthesis of triglyceride (index of differentiation into mature adipocytes),"[3]; final concentration 30 μM or 10 μM, FIG. 14",induction of biosynthesis of triglyceride was found
same,deaths after oral administration,[2],no cases of deaths are found
"CC1(C)CCCC2(C)C3COC(=O)C3=CCC12 (stereo not shown) [P006, 5,5a,6,7,8,9,9a,9b-octahydro-6,6,9a-trimethyl-naphtho[1,2-c]furan-3(1H)-one]",biosynthesis of triglyceride (index of differentiation into mature adipocytes),[3]; [6],induction of biosynthesis of triglyceride was found
same,deaths after oral administration,[2],no cases of deaths are found
"CC(=O)OCC1=CCC2C(C)(C)CCCC2(C)C1C=O (stereo not shown) [P007, 1-[(acetyloxy)methyl]-1,4,4a,5,6,7,8,8a-octahydro-5,5,8a-trimethyl-2-naphthalenecarboxyaldehyde]",biosynthesis of triglyceride (index of differentiation into mature adipocytes),[3]; [6],induction of biosynthesis of triglyceride was found
same,deaths after oral administration,[2],no cases of deaths are found
"CC(=O)OCC1=CCC2C(C)(C)CCCC2(C)C1C=O (stereo not shown) [P008, 2-[(acetyloxy)methyl]-1,4,4a,5,6,7,8,8a-octahydro-5,5,8a-trimethyl-1-naphthalenecarboxyaldehyde]",biosynthesis of triglyceride (index of differentiation into mature adipocytes),"[3]; final concentration 10 μM or 3 μM, FIG. 20",induction of biosynthesis of triglyceride was found
same,deaths after oral administration,[2],no cases of deaths are found
"C=C1[C@@H](C)[C@H]2[C@H](Cc3ccccc3)NC(=O)[C@]23OC(=O)/C=C/[C@H](O)CCC[C@@H](C)C/C=C/[C@H]3[C@@H]1O [cytochalasin B, reference compound]","2-deoxy-[1,2-3H(N)]-glucose uptake on addition of cytochalasin B",[4],almost completely inhibited
CC1(C)CCC[C@]2(C)[C@H](C=O)C(C=O)=CC[C@@H]12 [epipolygodial],"2-deoxy-[1,2-3H(N)]-glucose uptake compared to the negative control","[1]; final concentration 3 μM, 1 μM or 0.3 μM, FIG. 25","enhancement of 2-deoxy-[1,2-^3H(N)]-glucose uptake was found"
same,deaths after oral administration,[2],no cases of deaths are found
CC1(C)C[C@H]2C=C(C=O)[C@]3(C=O)C[C@]3(C)[C@H]2C1 [isovelleral],"2-deoxy-[1,2-3H(N)]-glucose uptake compared to the negative control","[1]; final concentration 3 μM or 1 μM, FIG. 24","enhancement of 2-deoxy-[1,2-^3H(N)]-glucose uptake was found"
same,deaths after oral administration,[2],no cases of deaths are found
CC1(C)CCCC2(C)C1CCC1(CO1)C2C/C=C(/C=O)CC=O (stereo not shown) [miogadial],deaths after oral administration,[2],no cases of deaths are found
"O=Cc1cc2ccccc2cc1C=O [naphthalene-2,3-dicarboxyaldehyde]","2-deoxy-[1,2-3H(N)]-glucose uptake compared to the negative control",[1]; [5],"enhancement of 2-deoxy-[1,2-^3H(N)]-glucose uptake was found"
same,deaths after oral administration,[2],no cases of deaths are found
